Assay [1] addresses T1, interaction between glucokinase (GK) and glucokinase regulatory protein (GKRP) (Homo sapiens, UniProt Q14397).
T1 sequence (Q14397 1-625): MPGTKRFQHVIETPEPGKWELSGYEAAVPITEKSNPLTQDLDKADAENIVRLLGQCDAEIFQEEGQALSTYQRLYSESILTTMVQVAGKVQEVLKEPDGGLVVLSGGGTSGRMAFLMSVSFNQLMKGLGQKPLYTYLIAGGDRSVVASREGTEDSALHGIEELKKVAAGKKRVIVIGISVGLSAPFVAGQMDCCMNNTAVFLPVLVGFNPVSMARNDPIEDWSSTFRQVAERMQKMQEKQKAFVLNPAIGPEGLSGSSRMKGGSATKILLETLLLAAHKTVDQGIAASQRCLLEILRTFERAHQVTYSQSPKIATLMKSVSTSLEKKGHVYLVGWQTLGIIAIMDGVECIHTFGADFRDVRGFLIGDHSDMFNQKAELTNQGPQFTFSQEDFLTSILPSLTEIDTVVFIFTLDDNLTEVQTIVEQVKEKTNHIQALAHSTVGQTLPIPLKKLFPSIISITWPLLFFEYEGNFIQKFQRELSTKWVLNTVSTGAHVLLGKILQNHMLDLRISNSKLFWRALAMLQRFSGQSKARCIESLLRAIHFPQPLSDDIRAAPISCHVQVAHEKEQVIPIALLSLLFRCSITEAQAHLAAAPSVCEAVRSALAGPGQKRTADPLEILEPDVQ
As to the kind of experiment: biochemical. The class given is binding. The essentials:
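Measures direct GK–GKRP binding in 20 mM Tris pH 7.5 containing 1 μM sorbitol-6-phosphate, 0.05% BSA and 1 mM DTT. Compound and avi-tagged GKRP sit 20 min at room temperature before GK-fluorescein addition (6 nM in the added buffer); read after 2 h dark incubation at room temperature.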

Assay [2] addresses T2, GKRP (Glucokinase Regulatory Protein) with human His-hepatic GK (Homo sapiens, UniProt Q14397).
T2 sequence (Q14397 1-625): T1 sequence (Q14397 1-625)
The assay is described as follows: biochemical. The method in brief:
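Product formation, 13C-glucose-6-phosphate from 13C-glucose, was measured directly by LC MS/MS after acetonitrile quench. The GK reaction ran 30 min at room temperature in Tris pH 7.5 buffer with 4 mM MgCl2 and 6% DMSO. The 5× enzyme stock was 30 nM His-tagged human hepatic glucokinase.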

Where [3] appears, read: avi-tagged GKRP, GK-fluorescein, AlphaScreen beads, read-out: GK-GKRP IC50 (Binding).
The mark [4] stands for this setting: 13C-glucose-6-phosphate formation, 280 nM GKRP (10×), 30 nM GK (5×), read-out: GK-GKRP EC50 (LC MS/MS-2).
The mark [5] stands for this setting: read-out: GK-GKRP IC50 (Binding).
Where [6] appears, read: read-out: GK-GKRP EC50 (LC MS/MS-2).

Where two headings read alike, the source gives them in different places.

As for `CC(O)(c1ccc(N2CCN(S(=O)(=O)c3cccs3)C[C@@H]2CS(=O)(=O)c2ccccc2)cc1)C(F)(F)F` (single isomer, unassigned) [Example 187 Peak#1], the half-inhibitory concentration (IC50) – broadly, the point on the concentration scale where inhibition reaches its midpoint – in assay [1] (setting [3]) was 41 nM. Also, the EC50 in assay [2] (setting [4]) was found to be 49 nM.

Turning to `CC(C)CN(C[C@H]1CN(S(=O)(=O)c2ccc(N)s2)CCN1c1ncc(C(O)(C(F)(F)F)C(F)(F)F)cn1)S(C)(=O)=O` [Example 229, N-(((2S)-4-((5-amino-2-thiophenyl)sulfonyl)-1-(5-(2,2,2-trifluoro-1-hydroxy-1-(trifluoromethyl)ethyl)-2-pyrimidinyl)-2-piperazinyl)methyl)-N-(2-methylpropyl)methanesulfonamide], the half-maximal inhibitory concentration (IC50) in assay [1] (setting [3]) was 1 nM. For the same compound, the EC50 in assay [2] (setting [4]) worked out at 13 nM.

On to `CC1(C)C(=O)NCCN1C[C@H]1CN(S(=O)(=O)c2cccs2)CCN1c1ccc(C(C)(O)C(F)(F)F)cc1` (single isomer, unassigned) [Example 180 Peak #1], for which the IC50 in assay [1] (setting [3]) was 11 nM. Further, the EC50 in assay [2] (setting [4]) was 40 nM.

Take `CC(O)(c1ccc(N2CCN(S(=O)(=O)c3cccs3)C[C@@H]2COCC2CCCO2)cc1)C(F)(F)F` (mixture of isomers) [Example 118, 1,1,1-trifluoro-2-(4-((2R)-2-((tetrahydro-2-furanylmethoxy)methyl)-4-(2-thiophenylsulfonyl)-1-piperazinyl)phenyl)-2-propanol]: the half-inhibitory concentration (IC50) in assay [1] (setting [3]) came to 570 nM. Besides, the EC50 in assay [2] (setting [4]) worked out at 1110 nM.

For `CC(O)(c1ccc(N2CCN(S(=O)(=O)c3cccs3)C[C@@H]2CSc2cccc(F)c2)cc1)C(F)(F)F` (mixture of isomers) [Example 188, 1,1,1-trifluoro-2-(4-((2R)-2-(((3-fluorophenyl)sulfanyl)methyl)-4-(2-thiophenylsulfonyl)-1-piperazinyl)phenyl)-2-propanol], the IC50 in assay [1] (setting [3]) is 112 nM. The EC50 in assay [2] (setting [4]) was 43 nM.

`C[C@@H](C[C@H]1CN(S(=O)(=O)c2cccs2)CCN1c1ccc([C@](C)(O)C(F)(F)F)cc1)NC1COC1` (racemic) [Example 148, 1,1,1-trifluoro-2-(4-((2S)-2-(2-(3-oxetanylamino)propyl)-4-(2-thiophenylsulfonyl)-1-piperazinyl)phenyl)-2-propanol] showed an IC50 in assay [1] (GK-GKRP IC50 (Binding)) of 1120 nM. Also, the EC50 in assay [2] (GK-GKRP EC50 (LC MS/MS-2)) was found to be 529 nM.

For `CC(C)N(C[C@H]1CN(S(=O)(=O)c2cccs2)CCN1c1ccc(C(C)(O)C(F)(F)F)cc1)S(=O)(=O)c1ccccc1` (mixture of isomers) [Example 197, N-(1-methylethyl)-N-(((2R)-4-(2-thiophenylsulfonyl)-1-(4-(2,2,2-trifluoro-1-hydroxy-1-methylethyl)phenyl)-2-piperazinyl)methyl)benzenesulfonamide], the IC50 in assay [1] (setting [3]) is 215 nM. In addition, the EC50 in assay [2] (setting [4]) turned out to be 80 nM.

Consider `CC(O)(c1ccc(N2CCN(S(=O)(=O)c3cccs3)C[C@@H]2CNc2ccccc2)cc1)C(F)(F)F` (mixture of isomers) [Example 203, 1,1,1-trifluoro-2-(4-((2S)-2-((phenylamino)methyl)-4-(2-thiophenylsulfonyl)-1-piperazinyl)phenyl)-2-propanol], for which, in assay [1] (GK-GKRP IC50 (Binding)), the half-inhibitory concentration (IC50) worked out at 278 nM. The same compound came in with an EC50 in assay [2] (GK-GKRP EC50 (LC MS/MS-2)) of 146 nM.

As for `CC(O)(c1ccc(N2CCN(S(=O)(=O)c3cccs3)C[C@@H]2CN2CCOCC2CNS(C)(=O)=O)cc1)C(F)(F)F` (single isomer, unassigned) [Example 112 Peak #1], the IC50 in assay [1] (setting [5]) was 275 nM. Besides, the EC50 in assay [2] (setting [6]) came to 986 nM.

`CC(O)(c1ccc(N2CCN(S(=O)(=O)c3cccs3)CC2CN2C3COCC2C(O)C3)cc1)C(F)(F)F` (single isomer, unassigned) [Example 77 Peak #2]: the IC50 in assay [1] (setting [3]) was found to be 11 nM. Also, in assay [2] (setting [4]), the EC50 worked out at 19 nM.

As for `CC(C)CN(C[C@H]1CN(S(=O)(=O)c2cccs2)CCN1c1ccc(C(C)(O)C(F)(F)F)cc1)S(=O)(=O)N(C)C` (mixture of isomers) [Example 215, N,N-dimethyl-N′-(2-methylpropyl)-N′-(((2R)-4-(2-thiophenylsulfonyl)-1-(4-(2,2,2-trifluoro-1-hydroxy-1-methylethyl)phenyl)-2-piperazinyl)methyl)sulfamide], the IC50 in assay [1] (setting [3]) came out at 70 nM. In assay [2] (setting [4]), the EC50 worked out at 70 nM.

On to `CC(O)(c1ccc(N2CCN(S(=O)(=O)c3cccs3)C[C@@H]2CN2CCC[C@H](O)C2)cc1)C(F)(F)F` (mixture of isomers) [Example 145, (3S)-1-(((2S)-4-(2-thiophenylsulfonyl)-1-(4-(2,2,2-trifluoro-1-hydroxy-1-methylethyl)phenyl)-2-piperazinyl)methyl)-3-piperidinol], for which the IC50 in assay [1] (setting [3]) worked out at 628 nM. Moreover, in assay [2] (setting [4]), the EC50 was 880 nM.

Consider `COc1ccccc1CC1CN(S(=O)(=O)c2cccs2)CCN1c1ccc(C(O)(C(F)(F)F)C(F)(F)F)cc1` (racemic) [Example 174, 1,1,1,3,3,3-hexafluoro-2-(4-(2-(2-methoxybenzyl)-4-(thiophen-2-ylsulfonyl)piperazin-1-yl)phenyl)-2-propanol], for which the IC50 in assay [1] (setting [3]) came out at 167 nM. Moreover, the EC50 in assay [2] (setting [4]) worked out at 114 nM.

In the case of `C[C@H]1COCCN1C[C@H]1CN(S(=O)(=O)c2cccs2)CCN1c1ccc(C(O)(CO)C(F)(F)F)cc1` (single isomer, unassigned) [Example 83 Peak #2], the 50% inhibitory concentration (IC50) in assay [1] (setting [3]) is 22 nM. In addition, in assay [2] (setting [4]), the EC50 was determined as 16 nM.

For the compound `CC(O)(c1ccc(N2CCN(S(=O)(=O)c3cccs3)C[C@@H]2CN(C2CCC2)S(C)(=O)=O)cc1)C(F)(F)F` (stereo partly drawn) [Example 212, N-cyclobutyl-N-(((2R)-4-(2-thiophenylsulfonyl)-1-(4-(2,2,2-trifluoro-1-hydroxy-1-methylethyl)phenyl)-2-piperazinyl)methyl) methanesulfonamide], in assay [1] (setting [3]), the half-inhibitory concentration (IC50) was 68 nM. Further, in assay [2] (setting [4]), the EC50 came to 92 nM.

Turning to `O=S(=O)(c1cccs1)N1CCN(c2ccc(C(O)(C(F)(F)F)C(F)(F)F)cc2C#CCO)CC1` [Example 152, 3-(2-(4-(2-thiophenylsulfonyl)-1-piperazinyl)-5-(2,2,2-trifluoro-1-hydroxy-1-(trifluoromethyl)ethyl)phenyl)-2-propyn-1-ol], the IC50 in assay [1] (setting [3]) was found to be 712 nM. In assay [2] (setting [4]), the EC50 stood at 557 nM.

Turning to `CC(O)(c1ccc(N2CCN(S(=O)(=O)c3cccs3)C[C@@H]2CN2C3COCC2C(O)C3)cc1)C(F)(F)F` (stereo partly drawn) [Example 77, 8-(((2S)-4-(2-thiophenylsulfonyl)-1-(4-(2,2,2-trifluoro-1-hydroxy-1-methylethyl)phenyl)-2-piperazinyl)methyl)-3-oxa-8-azabicyclo[3.2.1]octan-6-ol (endo)], the IC50 in assay [1] (setting [3]) worked out at 28 nM. The EC50 in assay [2] (setting [4]) was 31 nM.

Turning to `CC(O)(c1ccc(N2CCN(S(=O)(=O)c3cccs3)C[C@@H]2CN2CCOC[C@H]2CO)cc1)C(F)(F)F` (single isomer, unassigned) [Example 110 Peak #2], the IC50 in assay [1] (setting [5]) is 79 nM. Besides, in assay [2] (setting [6]), the EC50 amounted to 132 nM.

`CC(O)(c1ccc(N2CCN(S(=O)(=O)c3ccc(N)s3)CC2)cc1)C(F)(F)F` (racemic) [Example 90, 2-(4-(4-((5-amino-2-thiophenyl)sulfonyl)-1-piperazinyl)phenyl)-1,1,1-trifluoro-2-propanol]: the IC50 in assay [1] (setting [3]) was determined as 448 nM. In addition, the EC50 in assay [2] (setting [4]) was found to be 836 nM.

For the origin of these results see patent US8431563B2 (priority 2010, dated 2013).
